{
  "source": "patent US9655882B2",
  "about": "“Compositions and methods for treatment of neurodegenerative disease” (THE JOHNS HOPKINS UNIVERSITY, priority 2008, dated 2017)",
  "molecules": {"B1": {"name": "Flt31: Flt3 ligand, RTK ligand (protein, UniProt P49771 27-235, looked up)", "Fms-related tyrosine kinase 3 …": "TQDCSFQHSPISSDFAVKIRELSDYLLQDYPVTVASNLQDEELCGGLWRLVLAQRWMERLKTVAGSKMQGLLERVNTEIHFVTKCAFQPPPSCLRFVQTNISRLLQETSEQLVALKPWITRQNFSRCLELQCQPDSSTLPPPWSPRPLEATAPTAPQPPLLLLLLLPVGLLLLAAAWCLHWQRTRRRTPRPGEQVPPVPSPQDLLLVEH"}},
  "key": {"[1]": {"test_system": "Mouse retinal ganglion cells (RGCs)", "assay": "Live-dead assay of cultured mouse RGCs (Cellomics VTI HCS reader), live cell count", "conditions": "approximately 2 days culture, various concentrations, FIG. 4"}, "mouse RGCs [2]": {"test_system": "mouse RGCs", "assay": "RGC survival in purified primary mouse RGC culture (high-content screening, Calcein AM/Hoechst/Ethidium Homodimer-1)", "format": "cell-based", "method": "Purified mouse RGCs were grown in Neurobasal, 2% B27, 1% N2 supplement, 0.5 mM glutamine. […] Increasing concentrations of kinase inhibitors were present in the media as indicated. Viability and neurite growth of RGCs were assayed by a combined staining with Calcein AM, Hoechst, and Ethidium Homodimer-1. The images were taken and processed by Cellomics Kineticscan.\nRGC survival and neurite growth were quantitatively measured as average surviving RGCs/field (4 mm^2) (FIG. 2C), total neurite length per RGC (FIG. 2D), average neurite length per RGC (FIG. 2E), and total neurite count per RGC (FIG. 2F)."}, "mouse RGCs [3]": {"test_system": "mouse RGCs", "assay": "Excitotoxicity (glutamate, KA, NMDA, AMPA) in purified mouse RGCs in vitro", "format": "cell-based", "conditions": "1 μM sunitinib", "description": "Neuronal toxicity of excitatory amino acid glutamate and its analogue NMDA is implicated in a number of neurodegenerative conditions that involve RGC, such as glaucoma, optic neuropathies of trauma and other origins, and that affect other CNS structures, such as Alzheimer's disease, Parkinson's disease, Huntington's disease, stroke, and […] (ALS). […] RGC viability was measured and the percentage of RGC loss due to the excitotoxicity was calculated."}, "mouse RGCs [4]": {"test_system": "mouse RGCs", "format": "in vivo", "conditions": "for RGC loss / RGC survival after optic nerve injury: intravitreal injection of 1 μl (2 mM) every three days for nine days", "text": ". Mouse optic nerve crush is a well-established animal model in mimicking the pathological conditions in which the primary injury sites are focal to RGC axons such as in glaucoma, AION, traumatic optic neuropathy, and multiple sclerosis. Specific RGC loss following nerve crush, which largely spares displaced amacrine cells in GCL, is thought to result from incomplete understood mechanism that implicates the blockage of retrograde axonal transport and subsequently impaired neurotrophin signaling, and excitotoxicity etc. In addition, mouse optic nerve crush has been successfully employed as an experimental system to identify the genetic nature controlling RGC susceptibility to axon injury.\nDuring the procedure, the optic nerve was carefully exposed through a post-orbital approach, and crushed with a self-closing forceps for three seconds. […] Since RGCs populate ˜60% cells in rodent GCL, the estimated surviving RGC is ˜57.3%. […]. […]"}, "activated Caspase-3": {"test_system": "activated Caspase-3", "assay": "Activated Caspase-3 positive (apoptotic) cells in GCL after mouse optic nerve crush", "format": "in vivo", "conditions": "three days following nerve crush, systemic treatment", "text": "Apoptosis has been identified as the major form of RGC death in many, if not all, degenerative conditions targeting their axons, and in mouse optic nerve."}, "RGC": {"test_system": "RGC", "assay": "RGC survival under Flt3 ligand with or without sunitinib", "format": "cell-based"}, "mouse RGCs [5]": {"test_system": "mouse RGCs", "assay": "RGC neurite growth in purified primary mouse RGC culture (high-content screening)", "format": "cell-based", "conditions": "Example 4, at 100 nM", "method": "Purified mouse RGCs were grown in Neurobasal, 2% B27, 1% N2 supplement, 0.5 mM glutamine. 2 μM forskolin was present in all the conditions except vehicle control with DMSO (dark bar), for 60 hours. Increasing concentrations of kinase inhibitors were present in the media as indicated. Viability and neurite growth of RGCs were assayed by a combined staining with Calcein AM, Hoechst, and Ethidium Homodimer-1. The images were taken and processed by Cellomics Kineticscan. […] Error bars: S.E.M.\nRGC survival and neurite growth were quantitatively measured as average surviving RGCs/field (4 mm^2) (FIG. 2C), total neurite length per RGC (FIG. 2D), average neurite length per RGC (FIG. 2E), and total neurite count per RGC (FIG. 2F). Error bars: S.E.M.\nTo enhance the assay sensitivity, the culture condition is defined to support a baseline level of RGC viability (20˜60% surviving RGCs after three days in culture) and neurite growth by 2.5 μM forskolin."}, "FLT3": {"target": "T1, FLT3 (Homo sapiens, UniProt P36888)", "T1 sequence (P36888 27-993)": "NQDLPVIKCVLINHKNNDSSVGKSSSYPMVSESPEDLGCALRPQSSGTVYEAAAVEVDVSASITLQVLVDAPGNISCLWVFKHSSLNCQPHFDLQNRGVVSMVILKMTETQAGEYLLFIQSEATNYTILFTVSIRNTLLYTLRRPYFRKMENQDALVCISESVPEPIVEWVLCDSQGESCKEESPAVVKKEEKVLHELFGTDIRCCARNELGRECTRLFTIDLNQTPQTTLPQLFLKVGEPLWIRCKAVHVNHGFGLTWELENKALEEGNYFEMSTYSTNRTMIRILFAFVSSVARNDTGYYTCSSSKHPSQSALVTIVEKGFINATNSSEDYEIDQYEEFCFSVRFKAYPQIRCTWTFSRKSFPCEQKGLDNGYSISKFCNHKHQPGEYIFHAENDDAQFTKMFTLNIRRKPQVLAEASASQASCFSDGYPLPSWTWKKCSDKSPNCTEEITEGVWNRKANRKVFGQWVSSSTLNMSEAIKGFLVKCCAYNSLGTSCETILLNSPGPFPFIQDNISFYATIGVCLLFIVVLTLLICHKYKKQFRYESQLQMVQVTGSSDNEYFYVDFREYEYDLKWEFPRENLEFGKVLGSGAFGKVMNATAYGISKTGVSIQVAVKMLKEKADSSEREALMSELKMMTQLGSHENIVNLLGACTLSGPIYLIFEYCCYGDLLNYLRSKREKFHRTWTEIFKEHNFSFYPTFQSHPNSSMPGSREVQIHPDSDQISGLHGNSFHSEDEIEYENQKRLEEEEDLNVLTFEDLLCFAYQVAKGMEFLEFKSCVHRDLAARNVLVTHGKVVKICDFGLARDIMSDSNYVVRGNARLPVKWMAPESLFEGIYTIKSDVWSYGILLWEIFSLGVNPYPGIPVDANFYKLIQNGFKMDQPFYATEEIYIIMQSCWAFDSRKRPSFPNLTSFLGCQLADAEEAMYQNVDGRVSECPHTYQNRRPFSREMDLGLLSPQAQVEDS", "conditions": "cited from earlier work"}},
  "note": "Read-outs that look alike come from different tables or passages of the source.",
  "data": [
    {"molecule": "CN(C)S(=O)(=O)c1ccc2c(c1)/C(=C/c1cc3c([nH]1)CCCC3)C(=O)N2", "note": "[SU6656, (3Z)—N,N-dimethyl-2-oxo-3-(4,5,6,7-tetrahydro-1H-indol-2-ylmethylidene)-1H-indole-5-sulfonamide]", "values": [
      {"measurement": "RGC survival (live cell count)", "setting": "[1]", "value": "significantly increased RGC survival"}
    ]},
    {"molecule": "CCN(CC)CCNC(=O)c1c(C)[nH]c(/C=C2\\C(=O)Nc3ccc(F)cc32)c1C", "note": "[sunitinib, N-[2-(diethylamino)ethyl]-5-[(Z)-(5-fluoro-1,2-dihydro-2-oxo-3H-indol-3-ylidine)methyl]-2,4-dimethyl-1H-pyrrole-3-carboxamide]", "values": [
      {"measurement": "toxicity to RGC in vitro", "setting": "mouse RGCs [2]; concentrations higher than 1 μM", "value": "higher concentrations exhibit toxicity"},
      {"measurement": "reduction of RGC loss caused by AMPA", "setting": "mouse RGCs [3]; 100 μM AMPA", "value": 4, "unit": "folds"},
      {"measurement": "reduction of RGC loss caused by NMDA", "setting": "mouse RGCs [3]; 100 μM NMDA", "value": "~10", "unit": "folds"},
      {"measurement": "projected surviving RGCs", "setting": "mouse RGCs [4]; mouse, in vivo", "value": 79.2, "unit": "%"},
      {"measurement": "appearance of retina", "setting": "mouse RGCs [4]; mouse, in vivo, 15 mg/kg/day", "value": "obvious yellow appearance"},
      {"measurement": "cells in GCL survived", "setting": "mouse RGCs [4]; systemic administration of 5 mg/kg/day for ten days after optic nerve crush", "value": "~88.5", "unit": "%"},
      {"measurement": "reduction of number of apoptotic cells in GCL", "setting": "activated Caspase-3", "value": 38.9, "unit": "%"},
      {"measurement": "antagonism of detrimental effects of Flt31 on RGC", "setting": "RGC; Flt31 at 16 ng/ml, sunitinib present in the media", "value": 1.4, "unit": "fold"}
    ]},
    {"molecule": "CNC(=O)c1cc(Oc2ccc(NC(=O)Nc3ccc(Cl)c(C(F)(F)F)c3)cc2)ccn1", "note": "[Sorafenib]", "values": [
      {"measurement": "pro-surviving activity on RGCs", "setting": "mouse RGCs [2]; Example 4, clinical protein kinase inhibitors, purified primary mouse RGC culture", "value": "lacking strong protective activity to RGC"},
      {"measurement": "RGC neurite growth", "setting": "mouse RGCs [5]", "value": "stimulate neurite growth as potently as sunitinib (1 μM)"}
    ]},
    {"molecule": "O=C(NC1CCOCC1)c1ccc(-c2cc(-c3c[nH]nc3-c3ccccn3)ccn2)cc1", "note": "[TGF-beta receptor inhibitor]", "values": [
      {"measurement": "RGC loss / RGC survival after optic nerve injury", "setting": "mouse RGCs [4]", "value": "capable of reducing RGC loss"},
      {"measurement": "RGC loss / RGC survival after optic nerve injury", "setting": "mouse RGCs [4]; listed as drawing 10", "value": "increased RGC survival"}
    ]},
    {"molecule": "B1", "values": [
      {"measurement": "effect on RGC survival", "setting": "RGC; Flt31 at 4 ng/ml", "value": "did not appear to affect RGC survival"},
      {"measurement": "compromise of the pro-surviving activity of sunitinib", "setting": "RGC; Flt31 at 4 ng/ml with sunitinib", "value": 36.6, "unit": "%"},
      {"measurement": "reduction of RGC survival", "setting": "RGC; Flt31 at 16 ng/ml", "value": 38.3, "unit": "%"},
      {"measurement": "EC50", "setting": "FLT3", "value": 4, "unit": "ng/mL"}
    ]}
  ]
}
